Data as given in article doi:10.1101/2021.04.08.439011v1 (biorxiv, 2021).
Where two headings read alike, the source gives them in different places.

What was measured:
[1] = molecular target: PIP4K2C (Homo sapiens, UniProt Q8TBX8); conditions: 1 µM; binder
[2] = molecular target: MYLK (Homo sapiens, UniProt Q15746); conditions: 1 µM; binder
[3] = molecular target: RET (Homo sapiens, UniProt P07949); conditions: 1 µM; binder
[4] = molecular target: CDKL3 (Homo sapiens, UniProt Q8IVW4); conditions: 1 µM; binder
[5] = molecular target: EPHA3 (Homo sapiens, UniProt P29320); conditions: 1 µM; binder
[6] = molecular target: TNIK (Homo sapiens, UniProt Q9UKE5); conditions: 1 µM; binder
[7] = molecular target: CLK1 (Homo sapiens, UniProt P49759); conditions: 1 µM; binder
[8] = molecular target: RIOK1 (Homo sapiens, UniProt Q9BRS2); conditions: 1 µM; binder
[9] = molecular target: PHKG2 (Homo sapiens, UniProt P15735); conditions: 1 µM; binder
[10] = molecular target: KIT(A829P) (Homo sapiens, UniProt P10721, A829P); conditions: 1 µM; binder
[11] = molecular target: GRK2 (Homo sapiens, UniProt P25098); conditions: 1 µM; binder
[12] = molecular target: HCK (Homo sapiens, UniProt P08631); conditions: 1 µM; binder
[13] = molecular target: ACVRL1 (Homo sapiens, UniProt P37023); conditions: 1 µM; binder
[14] = molecular target: EGFR (Homo sapiens, UniProt P00533); conditions: 1 µM; binder
[15] = molecular target: CSNK2A1 (Homo sapiens, UniProt P68400); conditions: 1 µM; binder
[16] = molecular target: EPHB4 (Homo sapiens, UniProt P54760); conditions: 1 µM; binder
[17] = molecular target: PIK3CA(C420R) (Homo sapiens, UniProt P42336, C420R); conditions: 1 µM; binder
[18] = molecular target: TEC (Homo sapiens, UniProt P42680); conditions: 1 µM; binder
[19] = molecular target: FYN (Homo sapiens, UniProt P06241); conditions: 1 µM; binder
[20] = molecular target: OSR1 (Homo sapiens, UniProt O95747); conditions: 1 µM; binder
[21] = molecular target: PAK3 (Homo sapiens, UniProt O75914); conditions: 1 µM; binder
[22] = molecular target: EGFR(L858R) (Homo sapiens, UniProt P00533, L858R); conditions: 1 µM; binder
[23] = molecular target: ABL1(F317L) (Homo sapiens, UniProt P00519, F317L); conditions: 1 µM, binder
[24] = molecular target: EGFR(S752-I759del) (Homo sapiens, UniProt P00533, DEL752-759); conditions: 1 µM; binder
[25] = molecular target: CSNK1G1 (Homo sapiens, UniProt Q9HCP0); conditions: 1 µM; binder
[26] = molecular target: RIPK4 (Homo sapiens, UniProt P57078); conditions: 1 µM; binder
[27] = molecular target: STK35 (Homo sapiens, UniProt Q8TDR2); conditions: 1 µM; binder
[28] = molecular target: PKMYT1 (Homo sapiens, UniProt Q99640); conditions: 1 µM; binder
[29] = molecular target: CSNK2A2 (Homo sapiens, UniProt P19784); conditions: 1 µM; binder
[30] = molecular target: CAMK2A (Homo sapiens, UniProt Q9UQM7); conditions: 1 µM; binder

Sequence of ABL1(F317L) (P00519 whole entry F317L): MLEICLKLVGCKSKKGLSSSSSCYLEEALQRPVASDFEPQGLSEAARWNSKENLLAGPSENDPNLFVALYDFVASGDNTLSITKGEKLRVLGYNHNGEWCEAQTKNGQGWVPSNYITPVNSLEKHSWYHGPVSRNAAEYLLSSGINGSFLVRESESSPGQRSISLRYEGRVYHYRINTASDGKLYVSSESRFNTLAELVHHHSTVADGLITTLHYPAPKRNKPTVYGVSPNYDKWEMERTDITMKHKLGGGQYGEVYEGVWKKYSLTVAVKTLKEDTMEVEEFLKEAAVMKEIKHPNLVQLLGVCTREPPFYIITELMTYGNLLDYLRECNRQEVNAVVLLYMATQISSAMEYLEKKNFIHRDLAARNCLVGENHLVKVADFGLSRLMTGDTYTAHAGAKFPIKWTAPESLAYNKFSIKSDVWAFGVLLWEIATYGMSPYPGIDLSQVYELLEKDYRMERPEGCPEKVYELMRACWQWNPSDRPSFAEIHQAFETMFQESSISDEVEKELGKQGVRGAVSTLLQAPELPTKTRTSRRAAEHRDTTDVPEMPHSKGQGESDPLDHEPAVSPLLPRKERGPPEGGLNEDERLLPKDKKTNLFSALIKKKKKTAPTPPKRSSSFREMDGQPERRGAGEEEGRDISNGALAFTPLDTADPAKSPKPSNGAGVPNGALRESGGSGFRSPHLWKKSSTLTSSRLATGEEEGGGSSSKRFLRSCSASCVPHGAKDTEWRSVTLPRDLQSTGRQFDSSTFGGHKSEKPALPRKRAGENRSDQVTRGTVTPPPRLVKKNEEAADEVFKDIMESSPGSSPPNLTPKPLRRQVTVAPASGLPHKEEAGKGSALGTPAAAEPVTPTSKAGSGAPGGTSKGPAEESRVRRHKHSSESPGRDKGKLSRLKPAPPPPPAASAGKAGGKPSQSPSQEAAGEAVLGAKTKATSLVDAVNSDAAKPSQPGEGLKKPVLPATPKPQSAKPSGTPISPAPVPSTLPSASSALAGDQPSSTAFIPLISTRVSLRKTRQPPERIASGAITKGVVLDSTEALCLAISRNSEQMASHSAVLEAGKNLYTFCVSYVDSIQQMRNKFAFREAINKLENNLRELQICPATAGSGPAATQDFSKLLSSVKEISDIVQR
Sequence of CSNK2A2 (P19784 whole entry): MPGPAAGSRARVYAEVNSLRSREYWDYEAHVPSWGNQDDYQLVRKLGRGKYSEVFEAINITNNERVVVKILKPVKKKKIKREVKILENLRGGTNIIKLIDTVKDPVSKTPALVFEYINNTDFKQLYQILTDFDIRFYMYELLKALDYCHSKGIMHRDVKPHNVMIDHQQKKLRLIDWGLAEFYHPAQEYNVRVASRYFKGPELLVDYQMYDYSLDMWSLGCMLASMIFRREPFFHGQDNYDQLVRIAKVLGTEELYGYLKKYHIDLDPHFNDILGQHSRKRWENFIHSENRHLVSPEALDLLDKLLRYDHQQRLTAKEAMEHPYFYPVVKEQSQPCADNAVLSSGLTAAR
Sequence of HCK (P08631 whole entry): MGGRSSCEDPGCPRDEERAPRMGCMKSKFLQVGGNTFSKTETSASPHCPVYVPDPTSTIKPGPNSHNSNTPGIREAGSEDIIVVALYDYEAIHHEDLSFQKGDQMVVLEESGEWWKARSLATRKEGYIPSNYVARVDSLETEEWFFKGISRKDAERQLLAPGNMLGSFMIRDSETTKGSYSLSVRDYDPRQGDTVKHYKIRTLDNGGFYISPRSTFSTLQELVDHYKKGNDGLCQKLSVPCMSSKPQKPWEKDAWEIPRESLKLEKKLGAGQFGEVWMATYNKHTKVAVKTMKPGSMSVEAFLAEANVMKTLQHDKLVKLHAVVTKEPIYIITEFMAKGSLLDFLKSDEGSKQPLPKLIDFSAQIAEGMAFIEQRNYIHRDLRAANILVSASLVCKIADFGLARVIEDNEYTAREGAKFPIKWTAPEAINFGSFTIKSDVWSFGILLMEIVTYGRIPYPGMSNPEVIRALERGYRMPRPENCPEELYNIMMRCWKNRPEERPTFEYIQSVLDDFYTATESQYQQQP
Sequence of PIK3CA(C420R) (P42336 whole entry C420R): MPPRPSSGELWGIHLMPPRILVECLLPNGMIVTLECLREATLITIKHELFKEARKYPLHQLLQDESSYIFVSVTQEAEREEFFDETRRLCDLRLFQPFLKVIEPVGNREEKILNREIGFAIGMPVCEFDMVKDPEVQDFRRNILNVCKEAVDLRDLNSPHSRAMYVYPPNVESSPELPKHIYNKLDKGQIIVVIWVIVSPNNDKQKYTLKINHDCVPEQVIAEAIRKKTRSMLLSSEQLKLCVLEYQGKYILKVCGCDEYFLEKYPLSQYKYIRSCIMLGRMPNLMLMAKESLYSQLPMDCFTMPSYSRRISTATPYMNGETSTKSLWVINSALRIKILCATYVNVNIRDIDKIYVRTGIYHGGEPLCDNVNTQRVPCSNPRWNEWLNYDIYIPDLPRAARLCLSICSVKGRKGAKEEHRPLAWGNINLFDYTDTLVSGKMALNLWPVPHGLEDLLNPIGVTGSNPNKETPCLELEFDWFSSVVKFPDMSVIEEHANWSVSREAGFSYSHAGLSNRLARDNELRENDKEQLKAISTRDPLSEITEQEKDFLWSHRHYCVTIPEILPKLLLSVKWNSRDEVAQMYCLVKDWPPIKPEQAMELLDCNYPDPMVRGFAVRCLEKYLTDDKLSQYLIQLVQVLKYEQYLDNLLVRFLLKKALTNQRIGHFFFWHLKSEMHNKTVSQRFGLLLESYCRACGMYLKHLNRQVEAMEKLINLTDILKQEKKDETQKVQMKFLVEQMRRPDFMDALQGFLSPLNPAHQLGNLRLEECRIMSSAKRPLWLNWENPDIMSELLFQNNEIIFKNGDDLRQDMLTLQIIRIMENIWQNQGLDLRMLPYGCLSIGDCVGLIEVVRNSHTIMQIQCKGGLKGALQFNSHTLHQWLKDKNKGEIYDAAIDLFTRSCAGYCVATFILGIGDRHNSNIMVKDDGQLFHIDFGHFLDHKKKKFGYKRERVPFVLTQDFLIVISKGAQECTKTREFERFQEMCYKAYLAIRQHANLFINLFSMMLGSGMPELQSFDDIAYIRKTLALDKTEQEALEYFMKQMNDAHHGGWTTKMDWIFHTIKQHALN
Sequence of CLK1 (P49759 whole entry): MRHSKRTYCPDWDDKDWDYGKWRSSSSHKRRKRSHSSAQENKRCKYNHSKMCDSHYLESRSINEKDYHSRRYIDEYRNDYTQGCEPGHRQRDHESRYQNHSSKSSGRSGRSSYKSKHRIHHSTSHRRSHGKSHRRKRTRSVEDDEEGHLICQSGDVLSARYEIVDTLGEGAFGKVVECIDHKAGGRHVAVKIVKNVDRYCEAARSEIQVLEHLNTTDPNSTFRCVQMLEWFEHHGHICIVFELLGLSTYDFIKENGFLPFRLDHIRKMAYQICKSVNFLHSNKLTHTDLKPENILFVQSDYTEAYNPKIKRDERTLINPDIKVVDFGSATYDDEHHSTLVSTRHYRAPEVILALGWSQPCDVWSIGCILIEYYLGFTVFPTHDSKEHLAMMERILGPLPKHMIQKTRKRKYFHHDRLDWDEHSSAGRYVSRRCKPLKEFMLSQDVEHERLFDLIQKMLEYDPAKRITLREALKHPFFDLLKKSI
Sequence of RET (P07949 whole entry): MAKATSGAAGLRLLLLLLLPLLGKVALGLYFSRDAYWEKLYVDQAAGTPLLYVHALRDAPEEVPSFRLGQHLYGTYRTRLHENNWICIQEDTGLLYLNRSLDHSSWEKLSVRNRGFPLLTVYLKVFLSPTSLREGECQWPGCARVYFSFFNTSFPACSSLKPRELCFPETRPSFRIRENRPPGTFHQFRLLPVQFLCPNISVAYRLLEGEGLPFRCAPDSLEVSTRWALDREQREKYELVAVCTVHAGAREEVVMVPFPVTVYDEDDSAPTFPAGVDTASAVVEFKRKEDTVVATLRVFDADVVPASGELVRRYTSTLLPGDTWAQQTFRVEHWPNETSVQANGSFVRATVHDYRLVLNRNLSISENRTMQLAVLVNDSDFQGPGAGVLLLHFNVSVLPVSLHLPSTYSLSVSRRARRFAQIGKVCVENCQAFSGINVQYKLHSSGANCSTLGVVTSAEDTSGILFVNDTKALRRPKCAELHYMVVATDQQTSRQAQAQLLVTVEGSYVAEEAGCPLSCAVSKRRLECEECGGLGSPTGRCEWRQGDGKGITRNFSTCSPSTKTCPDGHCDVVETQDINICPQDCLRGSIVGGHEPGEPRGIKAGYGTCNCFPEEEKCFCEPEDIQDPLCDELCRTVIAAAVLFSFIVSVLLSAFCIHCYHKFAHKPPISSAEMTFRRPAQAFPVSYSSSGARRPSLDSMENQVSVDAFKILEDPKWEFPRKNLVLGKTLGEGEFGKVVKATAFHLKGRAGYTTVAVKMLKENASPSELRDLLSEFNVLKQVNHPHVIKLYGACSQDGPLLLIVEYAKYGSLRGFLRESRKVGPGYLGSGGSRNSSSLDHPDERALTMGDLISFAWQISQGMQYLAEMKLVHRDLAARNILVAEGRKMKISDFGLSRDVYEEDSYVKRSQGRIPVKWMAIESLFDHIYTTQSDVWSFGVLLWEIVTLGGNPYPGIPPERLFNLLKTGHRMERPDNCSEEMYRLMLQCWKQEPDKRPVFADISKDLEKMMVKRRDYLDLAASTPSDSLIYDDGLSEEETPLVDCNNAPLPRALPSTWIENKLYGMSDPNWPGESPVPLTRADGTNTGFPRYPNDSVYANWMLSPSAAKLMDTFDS
Sequence of CSNK2A1 (P68400 whole entry): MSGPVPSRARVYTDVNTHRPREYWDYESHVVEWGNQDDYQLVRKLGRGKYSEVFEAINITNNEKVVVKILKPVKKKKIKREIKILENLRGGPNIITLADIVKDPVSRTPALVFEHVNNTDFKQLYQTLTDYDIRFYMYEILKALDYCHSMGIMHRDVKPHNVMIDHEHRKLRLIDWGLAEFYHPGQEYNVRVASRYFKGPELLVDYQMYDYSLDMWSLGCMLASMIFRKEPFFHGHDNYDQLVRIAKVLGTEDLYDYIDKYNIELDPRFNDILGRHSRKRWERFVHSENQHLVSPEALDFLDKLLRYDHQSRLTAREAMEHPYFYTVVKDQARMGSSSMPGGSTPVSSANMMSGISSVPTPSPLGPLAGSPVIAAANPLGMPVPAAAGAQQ

CNc1ncc2cc(-c3ccc(-c4cccc(C)n4)cc3Cl)c(=O)n(C[C@H]3OC[C@H](N)CO3)c2n1 [compound 6, G-5555]
Percent Control [1]: 26%
Percent Control [2]: 85%
Percent Control [3]: 94%
Percent Control [4]: 100%
Percent Control [5]: 88%
Percent Control [6]: 51%
Percent Control [7]: 100%
Percent Control [8]: 100%
Percent Control [9]: 100%
Percent Control [10]: 63%
Percent Control [11]: 100%
Percent Control [12]: 100%
Percent Control [13]: 100%
Percent Control [14]: 88%
Percent Control [15]: 98%
Percent Control [16]: 100%
Percent Control [17]: 100%
Percent Control [18]: 100%
Percent Control [19]: 87%
Percent Control [20]: 100%
Percent Control [21]: 100%
Percent Control [22]: 85%
Percent Control ([23]; nonphosphorylated): 87%
Percent Control ([23]; phosphorylated): 100%
Percent Control [24]: 100%
Percent Control [25]: 100%
Percent Control [26]: 100%
Percent Control [27]: 100%
Percent Control [28]: 100%
Percent Control [29]: 95%
Percent Control [30]: 88%
